Measurements reported in patent publication EP4656642A1, “ESTROGEN RECEPTOR PROTEOLYSIS TARGETING CHIMERA COMPOUND AND USE THEREOF” (GAN & LEE PHARM CO., LTD, priority 2023, dated 2024).

Key:
Format in all cases: cell-based
AR protein = biological target: T1, AR protein (Homo sapiens, UniProt P10275, T878A); test: Degradation of AR protein in LNCAP cells (Western blot, 8 h); conditions: LNCaP FGC cells
T1 construct: host or cells: LNCaP FGC
T1 sequence (P10275 1-920 T878A): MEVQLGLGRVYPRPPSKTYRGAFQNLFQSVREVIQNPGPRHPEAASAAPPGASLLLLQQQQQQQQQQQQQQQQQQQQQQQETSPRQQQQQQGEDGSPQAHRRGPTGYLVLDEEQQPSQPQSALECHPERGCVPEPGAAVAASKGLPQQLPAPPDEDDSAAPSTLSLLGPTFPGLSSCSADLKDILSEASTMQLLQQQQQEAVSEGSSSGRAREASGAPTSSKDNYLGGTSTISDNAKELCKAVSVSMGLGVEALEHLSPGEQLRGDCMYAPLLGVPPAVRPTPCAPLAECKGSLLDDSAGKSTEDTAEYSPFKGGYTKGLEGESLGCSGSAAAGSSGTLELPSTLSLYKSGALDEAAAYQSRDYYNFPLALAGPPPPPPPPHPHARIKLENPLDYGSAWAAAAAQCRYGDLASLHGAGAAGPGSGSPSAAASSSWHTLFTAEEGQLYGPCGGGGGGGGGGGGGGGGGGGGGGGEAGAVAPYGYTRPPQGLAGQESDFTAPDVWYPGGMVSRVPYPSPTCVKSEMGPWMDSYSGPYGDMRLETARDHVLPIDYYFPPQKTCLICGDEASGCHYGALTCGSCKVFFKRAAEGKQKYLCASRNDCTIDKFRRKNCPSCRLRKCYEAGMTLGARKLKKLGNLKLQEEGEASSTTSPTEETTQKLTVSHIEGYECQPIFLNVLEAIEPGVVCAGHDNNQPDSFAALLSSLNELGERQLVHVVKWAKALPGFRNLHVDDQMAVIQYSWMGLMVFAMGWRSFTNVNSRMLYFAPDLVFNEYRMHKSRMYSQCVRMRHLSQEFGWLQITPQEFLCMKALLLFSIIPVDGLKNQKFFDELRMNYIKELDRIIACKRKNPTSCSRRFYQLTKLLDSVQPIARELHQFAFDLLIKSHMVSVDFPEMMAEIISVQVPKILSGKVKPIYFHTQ
Description: After 8 h, the culture medium was discarded, and the cells were washed with PBS. After the cells were washed with PBS, RIPA lysis buffer containing 1% Protease Inhibitor Cocktail was added, and the total protein extract was obtained after lysis and centrifugation, and the protein concentration in the extract was detected by BCA method. Protein electrophoresis was carried out by SDS-PAGE, after which the proteins were transferred to PVDF (Millipore Sigma Catalog No. PSRP010R5) membrane by 100V constant voltage electrotransfer for 60 min, and the PVDF membrane was placed in 1×TBST solution with 5% milk and blocked at room temperature for 1h. […] The primary antibody solution was discarded, and the PVDF membrane was washed three times with 1× TBST for 5 min each. […] The secondary antibody solution was discarded, and the PVDF membrane was washed three times with 1× TBST for 5 min each. Western membrane imaging was performed using a dual-color infrared laser imaging system (Licor catalog number Odyssey CLX). Bands were analyzed in grayscale using the software Image Studio. For each sample, GAPDH protein bands were detected as internal reference. The degradation rates of the AR protein for the compounds and positive control sample were calculated based on the grayscale of the protein bands.

MCF-7 cells [1] = test: Inhibition of cell proliferation of MCF-7 cells (CCK-8, 9 days); conditions: treated for 9 days, CCK-8 kit (Table 6)
How it was run: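 Read-out was CCK-8 viability after 9-day continuous exposure (37°C, 5% CO2) of MCF-7 cells plated at 800/well in 10% FBS DMEM across several compound concentrations. Values are proliferation IC50s.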

ERα [2] = biological target: T2, ERα (Homo sapiens, UniProt P03372); test: Degradation of ERα in T-47D cells (immunoblotting, 4 h); design: host or cells: T-47D
T2 sequence (P03372 1-595): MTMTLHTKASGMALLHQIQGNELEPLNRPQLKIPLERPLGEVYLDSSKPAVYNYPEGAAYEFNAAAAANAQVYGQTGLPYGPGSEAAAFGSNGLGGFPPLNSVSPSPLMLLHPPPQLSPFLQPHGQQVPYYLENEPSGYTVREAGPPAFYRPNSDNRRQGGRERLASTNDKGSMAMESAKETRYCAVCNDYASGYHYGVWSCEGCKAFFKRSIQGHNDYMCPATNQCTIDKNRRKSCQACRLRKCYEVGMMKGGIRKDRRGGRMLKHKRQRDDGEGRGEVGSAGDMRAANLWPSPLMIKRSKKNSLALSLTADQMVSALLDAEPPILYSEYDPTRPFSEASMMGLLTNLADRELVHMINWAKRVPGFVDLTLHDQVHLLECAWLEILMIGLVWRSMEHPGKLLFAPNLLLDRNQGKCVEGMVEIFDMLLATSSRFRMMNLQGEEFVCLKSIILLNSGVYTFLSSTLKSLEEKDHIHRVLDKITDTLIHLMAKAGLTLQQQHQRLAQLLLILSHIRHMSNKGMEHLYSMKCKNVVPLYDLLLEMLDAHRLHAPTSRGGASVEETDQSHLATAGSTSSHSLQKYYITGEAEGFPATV
How it was run: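 ERα protein levels were assessed by immunoblot of RIPA lysates (with protease inhibitor) after 4 h exposure at 37°C. Compound was added in DMSO to T-47D cells at final concentrations of 0.15-1000 nM.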

T-47D cells = test: Inhibition of cell proliferation in T-47D cells (CCK-8, 6 days); conditions: 6 days of treatment
How it was run: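 Viability read-out was CCK-8 after 6 days of compound treatment (37 °C, 5% CO2) across graded concentrations. Cells were T-47D seeded at 3,000 per well in 1640 medium plus 10% FBS. IC50 was calculated against proliferation.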

ERα [3] = biological target: T2, ERα; test: Degradation of ERα in MCF-7 cells (immunoblotting, 4 h)
How it was run: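 Degradation rate reflects ERα band intensity, corrected to an internal reference protein, relative to control. Values come from Western blotting of lysates from MCF-7 cells exposed 4 h at 37°C to compounds at final concentrations of 0.15-1000nM.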

MCF-7 cells [4] = test: Inhibition of cell proliferation of MCF-7 cells (CCK-8, 6 days); conditions: 6 days of treatment, Table 4
Excerpt: Test Example 3 Inhibitory effect of the PROTAC compounds provided in the present disclosure on cell proliferation of MCF-7 cells
The complete medium required for MCF-7 cells (source ATCC) was DMEM (gibco, Product number :11995-065) basal medium containing 10% fetal bovine serum. MCF-7 cells were inoculated in 96-well plates at a density of 800 cells/well, and different concentrations of the PROTAC compounds 1-55 provided in the examples of the present disclosure and a positive control sample ARV-471 (source: Innochem) were prepared to treat the cells, and the cells were treated at 37°C in a cell culture incubator with 5% CO2 for 6 days. Cell viability was detected using a CCK-8 kit (Beyotime, Product number: C0040) according to the manufacturer's instructions. The IC50 values of each PROTAC compound after 6 days of treatment were calculated using GraphPadPrism software based on the inhibition rate, and the results are shown in Table 4. Table 4 IC50 values for inhibition of the proliferation of MCF-7 cells by the PROTAC compounds of the present disclosure and positive control sample

Row | Degradation rates of the AR protein in LNCAP cells, 10 nM (%) (AR protein) | Degradation rates of the AR protein in LNCAP cells, 100 nM (%) (AR protein) | IC50 (MCF-7 cells [1]) [nM] | Degradation rate (%) of ERα in T-47D cells (ERα [2]; 1nM compound) [%] | Degradation rate (%) of ERα in T-47D cells (ERα [2]; 10nM compound) [%] | IC50 (T-47D cells; Table 3) [nM] | Degradation rate (%) of ERα in MCF-7 cells (ERα [3]; 1nM compound) [%] | Degradation rate (%) of ERα in MCF-7 cells (ERα [3]; 10nM compound) [%] | IC50 (MCF-7 cells [4]) [nM] | IC50 (T-47D cells; Table 2) [nM] | Compound
1 | 20 | 70 | – | – | – | – | – | – | – | – | C[C@H]1CC2(CCN(c3ccc(N4CCC(CN5CCC6(CC5)COc5cc7c(cc56)CN(C5CCC(=O)NC5=O)C7=O)CC4)cc3)CC2)CN1c1ccc(C#N)c(Cl)c1 (stereo partly shown) [2-376]
2 | 48 | 63 | – | – | – | – | – | – | – | – | C[C@H]1CC2(CCN(c3ccc(C(=O)N4CCC(CN5CCC6(CC5)COc5cc7c(cc56)CN(C5CCC(=O)NC5=O)C7=O)CC4)cc3)CC2)CN1c1ccc(C#N)c(Cl)c1 (stereo partly shown) [2-384]
3 | – | – | 757 | -1 | 17 | 7.97 | -20 | 6 | – | – | O=C1CCC(N2Cc3ccc4c(c3C2=O)OCC42CCN(C3CCC4(CC3)CN(c3ccc([C@@H]5c6ccc(O)cc6CC[C@@H]5c5ccccc5)cc3)C4)CC2)C(=O)N1 (stereo partly shown) [L25]
4 | – | – | 828 | -11 | 30 | 6.52 | 10 | 18 | – | – | O=C1CCC(N2Cc3ccc4c(c3C2=O)OCC42CCN(C3CC4(CCN(c5ccc([C@@H]6c7ccc(O)cc7CC[C@@H]6c6ccccc6)cc5)CC4)C3)CC2)C(=O)N1 (stereo partly shown) [L26]
5 | – | – | > 100000 | 12 | 66 | 8.51 | 24 | 52 | – | – | O=C1CCC(N2Cc3c(ccc4c3OCC43CCN(C(=O)C4CCC5(CC4)CCN(c4ccc([C@@H]6c7ccc(O)cc7CC[C@@H]6c6ccccc6)cc4)CC5)CC3)C2=O)C(=O)N1 (stereo partly shown) [L27]
6 | – | – | – | – | – | – | – | – | 44100 | 117 | O=C1CCC(N2Cc3cc4c(cc3C2=O)CCC2(CCN(CC3CN(c5ccc(C6c7ccc(O)cc7CCC6c6ccccc6)cc5)C3)CC2)O4)C(=O)N1 (stereo not shown) [M1]
7 | – | – | – | – | – | – | – | – | 5660 | 313 | O=C1CCC(N2Cc3cc4c(cc3C2=O)OC2(CC4)CCN(C3CC4(C3)CN(c3ccc(C5c6ccc(O)cc6CCC5c5ccccc5)cc3)C4)CC2)C(=O)N1 (stereo not shown) [M5]
8 | – | – | – | – | – | – | – | – | 51700 | 22 | O=C1CCC(N2Cc3cc4c(cc3C2=O)OC2(CC4)CN(C3CC4(CCN(c5ccc(C6c7ccc(O)cc7CCC6c6ccccc6)cc5)CC4)C3)C2)C(=O)N1 (stereo not shown) [M8]
9 | – | – | 48 | -15 | 13 | 6 | -23 | -24 | – | – | O=C1CCC(N2Cc3cc4c(cc3C2=O)CCC2(CN(CC3CCC5(CC3)CN(c3ccc([C@@H]6c7ccc(O)cc7CC[C@@H]6c6ccccc6)cc3)C5)C2)O4)C(=O)N1 (stereo partly shown) [M15]
10 | – | – | 30 | 10 | 20 | 8 | -9 | 0 | – | – | O=C1CCC(N2Cc3cc4c(cc3C2=O)OC2(CC4)CCN(C3CC4(CCN(c5ccc([C@@H]6c7ccc(O)cc7CC[C@@H]6c6ccccc6)cc5)CC4)C3)CC2)C(=O)N1 (stereo partly shown) [M17]
11 | – | – | 247 | 10 | 42 | 3.63 | -7 | -8 | – | – | CN(C1CCN(c2ccc([C@@H]3c4ccc(O)cc4CC[C@@H]3c3ccccc3)cc2)CC1)[C@H]1CC[C@H](C(=O)N2CCC3(CC2)COc2c3ccc3c2CN(C2CCC(=O)NC2=O)C3=O)CC1 (stereo partly shown) [N2]
12 | – | – | 195 | 30 | 70 | 4.92 | -4 | 1 | – | – | CN(CC1CCN(c2ccc([C@@H]3c4ccc(O)cc4CC[C@@H]3c3ccccc3)cc2)CC1)[C@H]1CC[C@H](C(=O)N2CCC3(CC2)COc2c3ccc3c2CN(C2CCC(=O)NC2=O)C3=O)CC1 (stereo partly shown) [N3]
13 | – | – | 132 | 64 | 85 | 3 | 54 | 73 | – | – | O=C1CCC(N2Cc3c(ccc4c3OCC43CCN(CCN4CCC5(CCN(c6ccc([C@@H]7c8ccc(O)cc8CC[C@@H]7c7ccccc7)cc6)CC5)C4)CC3)C2=O)C(=O)N1 (stereo partly shown) [N4]
14 | – | – | 34.1 | 63 | 82 | 1.79 | 58 | 69 | – | – | O=C1CCC(N2Cc3c(ccc4c3OCC43CCN(C(=O)C(=O)N4CCC5(CCN(c6ccc([C@@H]7c8ccc(O)cc8CC[C@@H]7c7ccccc7)cc6)CC5)C4)CC3)C2=O)C(=O)N1 (stereo partly shown) [N5]
15 | – | – | 25400 | 21 | 55 | 6.6 | -2 | 31 | – | – | CCN(CC1CCN(c2ccc([C@@H]3c4ccc(O)cc4CC[C@@H]3c3ccccc3)cc2)CC1)[C@H]1CC[C@@H](C(=O)N2CCC3(CC2)COc2c3ccc3c2CN(C2CCC(=O)NC2=O)C3=O)CC1 (stereo partly shown) [N8]
